Assay results as given in patent publication US6054435A, “6-O-substituted macrolides having antibacterial activity” (priority 1999, dated 2000).
Converted amounts (≈) assume the structure as drawn.

Columns and labels:
Experiment in all cases: in vitro antibacterial activity (MIC), agar dilution
Type in all cases: cell-based
[1] = test system: Streptococcus Pneumonia GYR 1171; settings: organism code YY; BHI agar, 35-37° C., 20 to 24 hours; unit assumed
Protocol: (§1) Representative compounds of the present invention were assayed in vitro for antibacterial activity as follows: Twelve petri dishes containing successive aqueous dilutions of the test compound mixed with 10 mL of sterilized Brain Heart Infusion (BHI) agar (Difco 0418-01-5) were prepared. Each plate was inoculated with 1:100 (or 1:10 for slow-growing strains, such as Micrococcus and Streptococcus) dilutions of up to 32 different microorganisms, using a Steers replicator block. […] In addition, a control plate, using BHI agar containing no test compound, was prepared and incubated at the beginning and end of each test.
(§2) An additional plate containing a compound having known susceptibility patterns for the organisms being tested and belonging to the same antibiotic class as the test compound was also prepared and incubated as a further control, as well as to provide test-to-test comparability.
(§3) After incubation, each plate was visually inspected. The minimum inhibitory concentration (MIC) was defined as the lowest concentration of drug yielding no growth, a slight haze, or sparsely isolated colonies on the inoculum spot as compared to the growth control.

[2] = test system: Staphylococcus aureus 1775; settings: organism code GG; BHI agar, 35-37° C., 20 to 24 hours; unit assumed
Protocol: as §1, §2, §3

[3] = test system: Staphylococcus epidermidis 3519; settings: organism code HH; BHI agar, 35-37° C., 20 to 24 hours; unit assumed
Protocol: as §1, §2, §3

[4] = test system: Staphylococcus aureus ATCC 6538P; settings: organism code AA; BHI agar, 35-37° C., 20 to 24 hours; unit assumed
Protocol: as §1, §2, §3

[5] = test system: Streptococcus Pneumonia 5979; settings: organism code ZZ; BHI agar, 35-37° C., 20 to 24 hours; unit assumed
Protocol: as §1, §2, §3

[6] = test system: Mycobacterium smegmatis ATCC 114; settings: organism code UU; BHI agar, 35-37° C., 20 to 24 hours; unit assumed
Protocol: as §1, §2, §3

[7] = test system: Streptococcus pyogenes EES61; settings: organism code LL; BHI agar, 35-37° C., 20 to 24 hours; unit assumed
Protocol: as §1, §2, §3

[8] = test system: Streptococcus pyogenes 930; settings: organism code MM; BHI agar, 35-37° C., 20 to 24 hours; unit assumed
Protocol: as §1, §2, §3

[9] = test system: Staphylococcus aureus CMX 642A; settings: organism code DD; BHI agar, 35-37° C., 20 to 24 hours; unit assumed
Protocol: as §1, §2, §3

[10] = test system: Haemophilis Influenzae DILL AMP R; settings: organism code WW; BHI agar, 35-37° C., 20 to 24 hours; unit assumed
Protocol: as §1, §2, §3

Escherichia coli JUHL = settings: organism code QQ; BHI agar, 35-37° C., 20 to 24 hours; unit assumed
Protocol: as §1, §2, §3

[11] = test system: Staphylococcus aureus A5177; settings: organism code BB; BHI agar, 35-37° C., 20 to 24 hours; unit assumed
Protocol: as §1, §2, §3

[12] = test system: Micrococcus luteus ATCC 4698; settings: organism code PP; BHI agar, 35-37° C., 20 to 24 hours; unit assumed
Protocol: as §1, §2, §3

[13] = test system: Micrococcus luteus ATCC 9341; settings: organism code OO; BHI agar, 35-37° C., 20 to 24 hours; unit assumed
Protocol: as §1, §2, §3

[14] = test system: Nocardia Asteroides ATCC9970; settings: organism code VV; BHI agar, 35-37° C., 20 to 24 hours; unit assumed
Protocol: as §1, §2, §3

Candida albicans CCH 442 = settings: organism code TT; BHI agar, 35-37° C., 20 to 24 hours; unit assumed
Protocol: as §1, §2, §3

Escherichia coli DC-2 = settings: organism code SS; BHI agar, 35-37° C., 20 to 24 hours; unit assumed
Protocol: as §1, §2, §3

[15] = test system: Streptococcus agalactiae CMX 508; settings: organism code KK; BHI agar, 35-37° C., 20 to 24 hours; unit assumed
Protocol: as §1, §2, §3

[16] = test system: Streptococcus pyogenes PIU 2548; settings: organism code NN; BHI agar, 35-37° C., 20 to 24 hours; unit assumed
Protocol: as §1, §2, §3

[17] = test system: Staphylococcus aureus A-5278; settings: organism code CC; BHI agar, 35-37° C., 20 to 24 hours; unit assumed
Protocol: as §1, §2, §3

Escherichia coli SS = settings: organism code RR; BHI agar, 35-37° C., 20 to 24 hours; unit assumed
Protocol: as §1, §2, §3

[18] = test system: Streptococcus Pneumonia ATCC6303; settings: organism code XX; BHI agar, 35-37° C., 20 to 24 hours; unit assumed
Protocol: as §1, §2, §3

[19] = test system: Staphylococcus aureus CMX 553; settings: organism code FF; BHI agar, 35-37° C., 20 to 24 hours; unit assumed
Protocol: as §1, §2, §3

[20] = test system: Staphylococcus aureus NCTC10649M; settings: organism code EE; BHI agar, 35-37° C., 20 to 24 hours; unit assumed
Protocol: as §1, §2, §3

[21] = test system: Streptococcus bovis A-5169; settings: organism code JJ; BHI agar, 35-37° C., 20 to 24 hours; unit assumed
Protocol: as §1, §2, §3

[22] = test system: Enterococcus faecium ATCC 8043; settings: organism code II; BHI agar, 35-37° C., 20 to 24 hours; unit assumed
Protocol: as §1, §2, §3

[23] = test system: Streptococcus Pneumonia 5649; settings: organism code ZZA; BHI agar, 35-37° C., 20 to 24 hours; unit assumed
Protocol: as §1, §2, §3

Row | SMILES | MIC [1] | MIC [2] | MIC [3] | MIC [4] | MIC [5] | MIC [6] | MIC [7] | MIC [8] | MIC [10] | MIC (Escherichia coli JUHL) | MIC [11] | MIC [12] | MIC [14] | MIC (Candida albicans CCH 442) | MIC [15] | MIC [16] | MIC [17] | MIC (Escherichia coli SS) | MIC [18] | MIC [20] | further results
1 | CC[C@H]1OC(=O)[C@H](C)C(=O)[C@H](C)[C@@H](O[C@@H]2O[C@H](C)C[C@H](N(C)C)[C@H]2O)[C@](C)(OC/C=C/c2cncc(-c3ccccn3)c2)C[C@@H](C)C(=O)[C@H](C)[C@H]2NC(=O)O[C@@]21C [Example 43] | ≤ 0.004 µg/mL | > 100 µg/mL | 0.1 µg/mL (≈ 0.126 µM) | 0.05 µg/mL (≈ 0.0631 µM) | 64 µg/mL (≈ 80.7 µM) | 0.78 µg/mL (≈ 0.984 µM) | 0.02 µg/mL (≈ 0.0252 µM) | 25 µg/mL (≈ 31.5 µM) | 2 µg/mL (≈ 2.52 µM) | 50 µg/mL (≈ 63.1 µM) | 0.05 µg/mL (≈ 0.0631 µM) | 0.2 µg/mL (≈ 0.252 µM) | 0.05 µg/mL (≈ 0.0631 µM) | > 100 µg/mL | 0.05 µg/mL (≈ 0.0631 µM) | 0.2 µg/mL (≈ 0.252 µM) | > 100 µg/mL | 0.39 µg/mL (≈ 0.492 µM) | ≤ 0.004 µg/mL | 0.2 µg/mL (≈ 0.252 µM) | MIC [9]: 0.1 µg/mL (≈ 0.126 µM); MIC [13]: 0.02 µg/mL (≈ 0.0252 µM); MIC (Escherichia coli DC-2): 25 µg/mL (≈ 31.5 µM); MIC [19]: 0.05 µg/mL (≈ 0.0631 µM); MIC [21]: 0.02 µg/mL (≈ 0.0252 µM); MIC [22]: 0.05 µg/mL (≈ 0.0631 µM)
2 | CC[C@H]1OC(=O)[C@H](C)C(=O)[C@H](C)[C@@H](O[C@@H]2O[C@H](C)C[C@H](N(C)C)[C@H]2O)[C@](C)(OC/C=C/c2cncc(-c3cnc4ccccc4c3)c2)C[C@@H](C)C(=O)[C@H](C)[C@H]2NC(=O)O[C@@]21C [Example 44] | ≤ 0.004 µg/mL | > 100 µg/mL | 0.1 µg/mL (≈ 0.119 µM) | 0.1 µg/mL (≈ 0.119 µM) | 8 µg/mL (≈ 9.49 µM) | 0.39 µg/mL (≈ 0.463 µM) | 0.01 µg/mL (≈ 0.0119 µM) | 6.2 µg/mL (≈ 7.35 µM) | 2 µg/mL (≈ 2.37 µM) | 100 µg/mL (≈ 119 µM) | 0.1 µg/mL (≈ 0.119 µM) | 0.1 µg/mL (≈ 0.119 µM) | 0.1 µg/mL (≈ 0.119 µM) | > 100 µg/mL | 0.05 µg/mL (≈ 0.0593 µM) | 0.1 µg/mL (≈ 0.119 µM) | > 100 µg/mL | 0.2 µg/mL (≈ 0.237 µM) | ≤ 0.004 µg/mL | 0.2 µg/mL (≈ 0.237 µM) | MIC [9]: 0.1 µg/mL (≈ 0.119 µM); MIC [13]: 0.01 µg/mL (≈ 0.0119 µM); MIC (Escherichia coli DC-2): 50 µg/mL (≈ 59.3 µM); MIC [19]: 0.05 µg/mL (≈ 0.0593 µM); MIC [21]: 0.01 µg/mL (≈ 0.0119 µM); MIC [22]: 0.05 µg/mL (≈ 0.0593 µM)
3 | CC[C@H]1OC(=O)[C@H](C)C(=O)[C@H](C)[C@@H](O[C@@H]2O[C@H](C)C[C@H](N(C)C)[C@H]2O)[C@](C)(OCC#Cc2ccc(-c3cncc(C(=O)NN(C)C)c3)s2)C[C@@H](C)C(=O)[C@H](C)[C@H]2NC(=O)O[C@@]21C [Example 12] | 0.03 µg/mL (≈ 0.034 µM) | > 100 µg/mL | 0.39 µg/mL (≈ 0.442 µM) | 0.39 µg/mL (≈ 0.442 µM) | 1 µg/mL (≈ 1.13 µM) | 6.2 µg/mL (≈ 7.03 µM) | 0.05 µg/mL (≈ 0.0567 µM) | 50 µg/mL (≈ 56.7 µM) | 16 µg/mL (≈ 18.1 µM) | > 100 µg/mL | 0.39 µg/mL (≈ 0.442 µM) | 0.39 µg/mL (≈ 0.442 µM) | 0.2 µg/mL (≈ 0.227 µM) | > 100 µg/mL | 0.05 µg/mL (≈ 0.0567 µM) | 0.78 µg/mL (≈ 0.884 µM) | > 100 µg/mL | 0.78 µg/mL (≈ 0.884 µM) | 0.03 µg/mL (≈ 0.034 µM) | 0.39 µg/mL (≈ 0.442 µM) | MIC [23]: 1 µg/mL (≈ 1.13 µM); MIC [21]: 0.05 µg/mL (≈ 0.0567 µM); MIC [22]: 0.02 µg/mL (≈ 0.0227 µM)
4 | CC[C@H]1OC(=O)[C@H](C)C(=O)[C@H](C)[C@@H](O[C@@H]2O[C@H](C)C[C@H](N(C)C)[C@H]2O)[C@](C)(OC/C=C/c2cncc(-c3ccccc3)c2)C[C@@H](C)C(=O)[C@H](C)[C@H]2NC(=O)O[C@@]21C [Example 42] | 0.03 µg/mL (≈ 0.0379 µM) | > 100 µg/mL | 0.2 µg/mL (≈ 0.253 µM) | 0.1 µg/mL (≈ 0.126 µM) | 32 µg/mL (≈ 40.4 µM) | 0.39 µg/mL (≈ 0.492 µM) | 0.02 µg/mL (≈ 0.0253 µM) | 50 µg/mL (≈ 63.1 µM) | 4 µg/mL (≈ 5.05 µM) | 100 µg/mL (≈ 126 µM) | 0.1 µg/mL (≈ 0.126 µM) | 0.2 µg/mL (≈ 0.253 µM) | 0.2 µg/mL (≈ 0.253 µM) | > 100 µg/mL | 0.02 µg/mL (≈ 0.0253 µM) | 0.2 µg/mL (≈ 0.253 µM) | > 100 µg/mL | 0.78 µg/mL (≈ 0.985 µM) | 0.03 µg/mL (≈ 0.0379 µM) | 0.2 µg/mL (≈ 0.253 µM) | MIC [9]: 0.2 µg/mL (≈ 0.253 µM); MIC [13]: 0.02 µg/mL (≈ 0.0253 µM); MIC (Escherichia coli DC-2): 50 µg/mL (≈ 63.1 µM); MIC [19]: 0.1 µg/mL (≈ 0.126 µM); MIC [21]: 0.02 µg/mL (≈ 0.0253 µM); MIC [22]: 0.05 µg/mL (≈ 0.0631 µM)
5 | CC[C@H]1OC(=O)[C@H](C)C(=O)[C@H](C)[C@@H](O[C@@H]2O[C@H](C)C[C@H](N(C)C)[C@H]2O)[C@](C)(OCC#Cc2ccc(-c3cncc(C(=O)N(C)C)c3)s2)C[C@@H](C)C(=O)[C@H](C)[C@H]2NC(=O)O[C@@]21C [Example 11] | 0.03 µg/mL (≈ 0.0346 µM) | > 100 µg/mL | 0.2 µg/mL (≈ 0.231 µM) | 0.1 µg/mL (≈ 0.115 µM) | 128 µg/mL (≈ 148 µM) | > 12.5 µg/mL | 0.02 µg/mL (≈ 0.0231 µM) | > 100 µg/mL | 16 µg/mL (≈ 18.5 µM) | > 100 µg/mL | 0.2 µg/mL (≈ 0.231 µM) | 0.2 µg/mL (≈ 0.231 µM) | 0.2 µg/mL (≈ 0.231 µM) | > 100 µg/mL | 0.05 µg/mL (≈ 0.0577 µM) | 0.39 µg/mL (≈ 0.45 µM) | > 100 µg/mL | 0.78 µg/mL (≈ 0.9 µM) | 0.03 µg/mL (≈ 0.0346 µM) | 0.2 µg/mL (≈ 0.231 µM) | MIC [23]: 1 µg/mL (≈ 1.15 µM); MIC [21]: 0.01 µg/mL (≈ 0.0115 µM); MIC [22]: 0.39 µg/mL (≈ 0.45 µM)
